Data as given in US20110165578A1, “METHODS FOR DETECTING AND QUANTIFYING OVERSULFATED GLYCOSAMINOGLYCANS” (priority 2008, published 2011).

Key:
Taq polymerase = target: T1, Taq polymerase (Thermus aquaticus, UniProt P19821); experiment: Taq polymerase inhibition by Taqman real time PCR (gene amplification, CT values); assay type: biochemical; settings: for Taq polymerase activity / 18S amplification: spiked into heparin and treated with heparinase; for gene amplification (polymerase activity) after treatment with heparinase: heparinase 2 hours at room temperature, OS-CS 30 ng, heparin 25 mU of lot C1 (FIG. 2B); for 18S amplification: same conditions
T1 construct: purchased ABI (Applied Biosystems)
T1 sequence (P19821 whole entry): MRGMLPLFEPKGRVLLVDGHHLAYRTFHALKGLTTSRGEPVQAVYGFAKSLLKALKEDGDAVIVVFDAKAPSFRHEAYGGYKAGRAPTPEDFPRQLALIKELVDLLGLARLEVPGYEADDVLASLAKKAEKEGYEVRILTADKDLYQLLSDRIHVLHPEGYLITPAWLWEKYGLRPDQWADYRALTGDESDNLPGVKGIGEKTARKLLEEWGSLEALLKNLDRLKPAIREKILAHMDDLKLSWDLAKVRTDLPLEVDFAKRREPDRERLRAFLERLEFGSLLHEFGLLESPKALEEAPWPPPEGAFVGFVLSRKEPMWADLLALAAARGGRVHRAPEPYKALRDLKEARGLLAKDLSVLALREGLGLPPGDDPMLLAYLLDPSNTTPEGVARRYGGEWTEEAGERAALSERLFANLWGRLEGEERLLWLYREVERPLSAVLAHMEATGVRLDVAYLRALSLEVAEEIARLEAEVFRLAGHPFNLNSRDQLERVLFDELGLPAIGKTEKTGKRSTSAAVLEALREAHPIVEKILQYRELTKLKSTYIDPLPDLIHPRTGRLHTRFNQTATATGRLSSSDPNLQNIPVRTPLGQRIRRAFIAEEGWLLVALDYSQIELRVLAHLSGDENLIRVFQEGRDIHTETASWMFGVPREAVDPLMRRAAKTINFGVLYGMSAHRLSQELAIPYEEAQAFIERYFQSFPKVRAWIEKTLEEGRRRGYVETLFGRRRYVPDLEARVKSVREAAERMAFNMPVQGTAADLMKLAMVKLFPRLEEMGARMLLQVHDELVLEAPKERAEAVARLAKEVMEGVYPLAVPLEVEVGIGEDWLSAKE
Method: Heparinase treatment: Heparin was treated with heparinase I (1:1 unit:unit reaction unless otherwise noted) for 2 hours at 25° C. in a buffer containing 4 mM Tris-HCl pH 7.5, 0.8 mM CaCl, 10 mM NaCl, and 20 U of RNase inhibitor (ABI). After treatment, the heparin was diluted to a final volume of 50 μl and serial dilutions were prepared in DEPC water as specified. Where indicated, other GAGs and oversulfated GAGs (dermatan sulfate, chondroitin sulfate, and heparan sulfate) were treated with heparinase under the same conditions as described above.
Screening Assay: cDNA was generated using total RNA from MDA-MB-231 human breast cancer cell line extracted using Trizol reagent (Invitrogen, Carlsbad, Calif.) as per manufacturer's instructions. For each cDNA reaction 1 μg total RNA was reverse transcribed using High Capacity cDNA Reverse Transcription Kit (Applied Biosystems, Foster City Calif.) in a volume of 20 μl and further diluted in DEPC water to 100 μl final volume. The concentration of cDNA was determined using Quant-iT OliGreen ssDNA Reagent (Invitrogen). For each Taqman® reaction, 25 ng of cDNA in a 2.5 μl volume were mixed with 2.5 μl of each dilution of heparinase-treated heparin or hypersulfated GAGs and then subjected to real time PCR using Taqman® Gene Expression assay for human 18S rRNA (20×) and 2× Universal PCR master mix (ABI) in a 25 μl reaction. Amplification levels of 18S are expressed as CT values. CT values represent the cycle at which amplification of a target gene is first detected. The amplification was analyzed using manual settings with a threshold value of 0.1 and the SDS2.3 software from ABI. […] Quantification of the oversulfated GAGs was performed by establishing a cutoff at the minimum concentration of synthetic OS-CS that completely blocks Taq polymerase (500 pg) and tittering all the samples until the activity of Taq polymerase was restored.
Real time-PCR (Taqman® PCR) is a highly sensitive method for detecting changes in gene expression. Gene amplification depends on a thermostable DNA polymerase from Thermus aquaticus (Taq pol). […] Shown in FIG. 1 are the levels of 18S amplification from 25 ng cDNA derived from MDA-MB-231 cells as determined by Taqman® PCR. While the 18S rRNA is used here, any RNA or DNA template is suitable. Addition of progressively higher amounts of heparin induces a corresponding reduction in Taq polymerase activity that can be monitored by assessing 18S cDNA amplification. […] Treatment of heparin with 1 unit of heparinase for 2 hrs at 25° C. overcomes the blocking activity of up to 50 mU of heparin (FIG. 1A).
To compare the use of different template sequences to measure the inhibition of Taq polymerase activity by oversulfated GAGs, heparin preparations were processed and RNA was isolated as detailed in Example 1, except that cDNAs were generated and amplified from the Actin B and GAPDH RNA sequences, in addition to the 18S rRNA.
Table 1 compares the effects of different oversulfated GAGs on the amplification of 18S, Actin B, and GAPDH sequences by Taq polymerase, as shown by mean cycle thresholds (CT) of amplification detection. The CT value indicating no inhibition of Taq polymerase activity varied slightly by template, but was maximally <20. […] Addition of progressively higher amounts of over sulfated chondroitin sulfate (OS-CS), oversulfated dermatan sulfate (OS-DS), and oversulfated heparan sulfate (OS-HS) to cDNA induced a corresponding reduction in Taq polymerase amplification of 18S, Actin B, and GAPDH.

porcine model = settings: 5 mg/kg i.v. in bolus; cited from earlier work
[1] = any concentration tested (0-125 ng)

Substance: Chondroitin sulfate E [CS-E]
- Taq polymerase activity (Taq polymerase; highest concentration tested (125 ng)): trace of inhibitory effect

Substance: Chondroitin sulfate type A [CS-A]
- Taq polymerase activity (Taq polymerase; [1]): did not inhibit

Substance: Heparan sulfate [HS]
- mean cycle threshold (CT) of amplification detection (Taq polymerase; 18S template, 8.3 ng): 13.62
- mean cycle threshold (CT) of amplification detection (Taq polymerase; 18S template, 25 ng): 13.66
- mean cycle threshold (CT) of amplification detection (Taq polymerase; 18S template, 62.5 ng): 13.69
- mean cycle threshold (CT) of amplification detection (Taq polymerase; 18S template, 125 ng): 13.96
- mean cycle threshold (CT) of amplification detection (Taq polymerase; 18S template, 250 ng): 14.36
- mean cycle threshold (CT) of amplification detection (Taq polymerase; Actin B template, 25 ng): 18.36
- mean cycle threshold (CT) of amplification detection (Taq polymerase; GAPDH template, 8.3 ng): 17.68
- mean cycle threshold (CT) of amplification detection (Taq polymerase; GAPDH template, 25 ng): 18.37
- Taq polymerase amplification of any of the tested templates (18S, Actin B, GAPDH) (Taq polymerase; at comparable concentrations): did not inhibit
- Taq polymerase activity (Taq polymerase; [1]): did not inhibit

Substance: dermatan sulfate [DS]
- Taq polymerase activity (Taq polymerase; [1]): did not inhibit

Substance: heparin
- amount of heparin whose blocking activity is overcome by heparinase treatment (Taq polymerase; 1 unit of heparinase, 2 hrs at 25° C., 18S (FIG. 1A)): up to 50 mU
- gene amplification (polymerase activity) after treatment with heparinase (Taq polymerase): restores gene amplification

Substance: oversulfated chondroitin sulfate [OS-CS]
- reproduction of the clinical syndrome (adverse events) (porcine model): partially reproduce the clinical syndrome
- amount that completely blocked Taq polymerase mediated 18S cDNA amplification (Taq polymerase; 18S template, 25 ng cDNA (FIG. 1C)): 500 pg
- mean cycle threshold (CT) of amplification detection (Taq polymerase; 18S template, 0.08 ng added to cDNA): 13.81
- mean cycle threshold (CT) of amplification detection (Taq polymerase; 18S template, 0.25 ng): 14.38
- mean cycle threshold (CT) of amplification detection (Taq polymerase; 18S template, 0.5 ng): 18.89
- mean cycle threshold (CT) of amplification detection (Taq polymerase; 18S template, 0.75 ng): 31.20
- mean cycle threshold (CT) of amplification detection (Taq polymerase; 18S template, 1 ng): 40.00
- mean cycle threshold (CT) of amplification detection (Taq polymerase; 18S template, 1.25 ng): 40.00
- mean cycle threshold (CT) of amplification detection (Taq polymerase; Actin B template, 0.08 ng): 18.48
- mean cycle threshold (CT) of amplification detection (Taq polymerase; Actin B template, 0.25 ng): 26.89
- mean cycle threshold (CT) of amplification detection (Taq polymerase; Actin B template, 0.5 ng): 38.84
- mean cycle threshold (CT) of amplification detection (Taq polymerase; Actin B template, 0.75 ng): 40.00
- mean cycle threshold (CT) of amplification detection (Taq polymerase; Actin B template, 1 ng): 40.00
- mean cycle threshold (CT) of amplification detection (Taq polymerase; Actin B template, 1.25 ng): 40.00
- mean cycle threshold (CT) of amplification detection (Taq polymerase; GAPDH template, 0.08 ng): 17.22
- mean cycle threshold (CT) of amplification detection (Taq polymerase; GAPDH template, 0.25 ng): 25.13
- mean cycle threshold (CT) of amplification detection (Taq polymerase; GAPDH template, 0.5 ng): 40.00
- mean cycle threshold (CT) of amplification detection (Taq polymerase; GAPDH template, 0.75 ng): 40.00
- mean cycle threshold (CT) of amplification detection (Taq polymerase; GAPDH template, 1 ng): 40.00
- mean cycle threshold (CT) of amplification detection (Taq polymerase; GAPDH template, 1.25 ng): 40.00
- limit of detection in heparin (Taq polymerase; calculated from 500 pg block and heparin potency 6.25 μg/U): 0.16 % (w/w)
- gene amplification (polymerase activity) after treatment with heparinase (Taq polymerase): not
- 18S amplification (Taq polymerase): significantly reduced

Substance: oversulfated dermatan sulfate [OS-DS]
- mean cycle threshold (CT) of amplification detection (Taq polymerase; 18S template, 0.3 ng): 14.13
- mean cycle threshold (CT) of amplification detection (Taq polymerase; 18S template, 0.9 ng): 18.29
- mean cycle threshold (CT) of amplification detection (Taq polymerase; 18S template, 2.7 ng): 40.00
- mean cycle threshold (CT) of amplification detection (Taq polymerase; 18S template, 8.3 ng): 40.00
- mean cycle threshold (CT) of amplification detection (Taq polymerase; 18S template, 25 ng): 40.00
- mean cycle threshold (CT) of amplification detection (Taq polymerase; Actin B template, 0.3 ng): 25.45
- mean cycle threshold (CT) of amplification detection (Taq polymerase; Actin B template, 0.9 ng): 31.85
- mean cycle threshold (CT) of amplification detection (Taq polymerase; Actin B template, 2.7 ng): 40.00
- mean cycle threshold (CT) of amplification detection (Taq polymerase; Actin B template, 8.3 ng): 40.00
- mean cycle threshold (CT) of amplification detection (Taq polymerase; Actin B template, 25 ng): 40.00
- mean cycle threshold (CT) of amplification detection (Taq polymerase; GAPDH template, 0.3 ng): 24.76
- mean cycle threshold (CT) of amplification detection (Taq polymerase; GAPDH template, 0.9 ng): 39.12
- mean cycle threshold (CT) of amplification detection (Taq polymerase; GAPDH template, 2.7 ng): 40.00
- mean cycle threshold (CT) of amplification detection (Taq polymerase; GAPDH template, 8.3 ng): 40.00
- mean cycle threshold (CT) of amplification detection (Taq polymerase; GAPDH template, 25 ng): 40.00
- 18S amplification (Taq polymerase): significantly reduced

Substance: oversulfated heparan sulfate [OS-HS]
- mean cycle threshold (CT) of amplification detection (Taq polymerase; 18S template, 0.3 ng): 14.49
- mean cycle threshold (CT) of amplification detection (Taq polymerase; 18S template, 0.9 ng): 26.00
- mean cycle threshold (CT) of amplification detection (Taq polymerase; 18S template, 2.7 ng): 40.00
- mean cycle threshold (CT) of amplification detection (Taq polymerase; 18S template, 8.3 ng): 40.00
- mean cycle threshold (CT) of amplification detection (Taq polymerase; 18S template, 25 ng): 40.00
- mean cycle threshold (CT) of amplification detection (Taq polymerase; Actin B template, 0.3 ng): 27.12
- mean cycle threshold (CT) of amplification detection (Taq polymerase; Actin B template, 0.9 ng): 40.00
- mean cycle threshold (CT) of amplification detection (Taq polymerase; Actin B template, 2.7 ng): 40.00
- mean cycle threshold (CT) of amplification detection (Taq polymerase; Actin B template, 8.3 ng): 40.00
- mean cycle threshold (CT) of amplification detection (Taq polymerase; GAPDH template, 0.3 ng): 25.98
- mean cycle threshold (CT) of amplification detection (Taq polymerase; GAPDH template, 0.9 ng): 40.00
- mean cycle threshold (CT) of amplification detection (Taq polymerase; GAPDH template, 2.7 ng): 40.00
- mean cycle threshold (CT) of amplification detection (Taq polymerase; GAPDH template, 8.3 ng): 40.00
- mean cycle threshold (CT) of amplification detection (Taq polymerase; GAPDH template, 25 ng): 40.00
- 18S amplification (Taq polymerase): significantly reduced
